Source: ChEMBL document CHEMBL1134059, “Synthesis and antifungal activities of novel 1,3-beta-D-glucan synthase inhibitors. Part 2” (Bioorg Med Chem Lett, 2001)
Converted amounts (≈) assume the structure as drawn. Numbered stars: 1 amine (or outer) side, 2 acyl side, 3 side chain; on linkers, the order of the positions; unused ones are H or OH. Bridge positions count the residues as written; N and C are the ends. Square brackets hold non-standard residues; d marks the D form. Peptide text beside a SMILES is read from it. Gln(3R-OH) = NC(=O)C[C@@H](O)[C@H](N)C(=O)O; X1 = CCCCCCCCCCCCC[C@H](CC(=O)[*:1])O[*:2]; Pro(3S-OH) = O=C(O)[C@H]1NCC[C@@H]1O; d(aThr) = C[C@@H](O)[C@@H](N)C(=O)O; Hyp = O=C(O)[C@@H]1C[C@@H](O)CN1; Orn = NCCC[C@H](N)C(=O)O

Tests used:
[1] = test system: Candida albicans; assay: In vitro antifungal activity against Candida albicans CY1002; format: functional, organism-based
[2] = test system: Mus musculus; assay: In vivo efficacy against Aspergillus fumigatus CF1083 1E4 conidia/g for pulmonary aspergillosis in mice after iv treatment on day 14; format: functional; conditions: 336 h
[3] = test system: Mus musculus; assay: In vivo efficacy against Candida albicans CY1002 5E6 cells for systemic candidiasis in mice after iv treatment on day 7; format: functional; conditions: CY1002 5E6, iv, 168 h
[4] = organism: Mus musculus; assay: Hepatotoxicity using inclusion-body formation test in hepatocytes of mice; format: functional, Hepatocyte
[5] = test system: Candida albicans; assay: In vitro antifungal activity against Candida albicans CY1002 using 80 percent serum; format: functional, organism-based
[6] = target: Beta-1,3-glucan synthase (Candida albicans, UniProt O13428); assay: In vitro inhibitory activity against Beta glucan synthase
[7] = test system: Aspergillus fumigatus; assay: Antifungal activity against Aspergillus fumigatus MTU06002; format: functional
[8] = test system: Lomentospora prolificans; assay: Antifungal activity against Scedosporium prolificans ATCC 20054; format: functional
[9] = test system: Candida albicans; assay: Antifungal activity against Candida albicans KB fluconazole resistant strain.; format: functional
[10] = test system: Scedosporium boydii; assay: Antifungal activity against Scedosporium […] IFM40731N.; format: functional
[11] = test system: Candida tropicalis; assay: Antifungal activity against Candida tropicalis ATCC 13803; format: functional
[12] = test system: Pichia kudriavzevii; assay: Antifungal activity against Candida krusei ATCC 20579; format: functional
[13] = test system: Candida albicans; assay: Antifungal activity against Candida albicans ATCC 48130; format: functional
[14] = test system: Nakaseomyces glabratus; assay: Antifungal activity against Candida glabrata ATCC 2001; format: functional

Beta-1,3-glucan synthase, sequence (O13428 whole entry): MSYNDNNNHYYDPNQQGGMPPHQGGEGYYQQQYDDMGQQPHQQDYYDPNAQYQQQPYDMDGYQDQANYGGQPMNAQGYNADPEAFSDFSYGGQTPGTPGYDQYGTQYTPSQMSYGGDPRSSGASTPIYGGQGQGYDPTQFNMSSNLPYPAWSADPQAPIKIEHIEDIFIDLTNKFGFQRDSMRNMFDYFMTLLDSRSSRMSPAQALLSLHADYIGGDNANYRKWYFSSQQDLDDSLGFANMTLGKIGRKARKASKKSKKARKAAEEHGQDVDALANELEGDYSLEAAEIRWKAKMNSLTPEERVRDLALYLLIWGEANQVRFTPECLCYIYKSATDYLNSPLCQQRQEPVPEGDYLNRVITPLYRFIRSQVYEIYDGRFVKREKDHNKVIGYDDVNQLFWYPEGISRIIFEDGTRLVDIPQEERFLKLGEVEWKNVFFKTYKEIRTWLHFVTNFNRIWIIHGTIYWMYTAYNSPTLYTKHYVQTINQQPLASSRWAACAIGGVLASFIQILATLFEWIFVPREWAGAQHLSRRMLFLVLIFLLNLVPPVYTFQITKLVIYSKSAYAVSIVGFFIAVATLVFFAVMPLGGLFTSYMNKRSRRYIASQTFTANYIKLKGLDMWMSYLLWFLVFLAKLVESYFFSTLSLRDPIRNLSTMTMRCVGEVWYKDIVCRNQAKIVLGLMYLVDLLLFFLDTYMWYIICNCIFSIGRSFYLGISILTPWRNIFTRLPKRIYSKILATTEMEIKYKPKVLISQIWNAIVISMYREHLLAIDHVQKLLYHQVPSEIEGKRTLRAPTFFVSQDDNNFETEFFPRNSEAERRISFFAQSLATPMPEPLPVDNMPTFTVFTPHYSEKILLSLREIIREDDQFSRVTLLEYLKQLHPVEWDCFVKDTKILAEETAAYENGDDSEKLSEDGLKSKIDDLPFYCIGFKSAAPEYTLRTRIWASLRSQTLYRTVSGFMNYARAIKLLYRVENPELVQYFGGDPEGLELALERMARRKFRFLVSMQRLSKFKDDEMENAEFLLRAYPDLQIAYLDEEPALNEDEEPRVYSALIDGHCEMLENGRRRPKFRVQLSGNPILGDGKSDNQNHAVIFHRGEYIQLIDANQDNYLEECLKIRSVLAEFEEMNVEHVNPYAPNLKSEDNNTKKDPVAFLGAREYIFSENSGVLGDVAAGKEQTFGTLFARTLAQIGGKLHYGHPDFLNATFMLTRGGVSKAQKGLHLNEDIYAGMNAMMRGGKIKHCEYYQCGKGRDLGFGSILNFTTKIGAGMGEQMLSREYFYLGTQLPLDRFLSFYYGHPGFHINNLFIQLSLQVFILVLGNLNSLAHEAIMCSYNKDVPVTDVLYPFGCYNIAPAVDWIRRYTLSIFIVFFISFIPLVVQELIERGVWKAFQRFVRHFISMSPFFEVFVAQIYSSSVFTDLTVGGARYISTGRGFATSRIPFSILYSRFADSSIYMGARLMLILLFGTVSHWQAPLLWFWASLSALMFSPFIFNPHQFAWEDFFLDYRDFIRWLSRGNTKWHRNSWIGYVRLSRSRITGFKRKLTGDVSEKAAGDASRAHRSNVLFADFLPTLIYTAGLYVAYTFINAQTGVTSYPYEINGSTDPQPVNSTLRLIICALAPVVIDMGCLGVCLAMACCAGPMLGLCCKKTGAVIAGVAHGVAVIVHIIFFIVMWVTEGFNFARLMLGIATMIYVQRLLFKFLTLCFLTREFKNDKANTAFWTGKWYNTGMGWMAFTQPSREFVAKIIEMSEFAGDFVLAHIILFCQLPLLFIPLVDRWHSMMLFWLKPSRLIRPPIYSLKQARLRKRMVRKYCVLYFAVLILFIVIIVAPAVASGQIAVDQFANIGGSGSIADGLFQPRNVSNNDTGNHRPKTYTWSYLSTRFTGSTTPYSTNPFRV

Structure (SMILES)	IC50 [1]	ED50 [2]	ED50 [3]	Observed at [4]	IC50 [5]	IC50 [6]	MIC [7]	MIC [8]	MIC [9]	MIC [10]	MIC [11]	MIC [12]	MIC [13]	MIC [14]
CCCCCCCCCCCCC[C@@H]1CC(=O)N[C@@H]([C@@H](C)O)C(=O)N[C@H](C)C(=O)N[C@@H](Cc2ccc(O)cc2)C(=O)N[C@@H](C(C)C)C(=O)N2C[C@H](O)C[C@H]2C(=O)N[C@@H]([C@@H](C)O)C(=O)N[C@@H]([C@@H](C)O)C(=O)N2CC[C@H](O)[C@H]2C(=O)N[C@@H]([C@H](O)CC(N)=O)C(=O)NCC(=O)N[C@@H]([C@@H](C)O)C(=O)N[C@@H](CCCN(CCCN)C(=O)[C@H](N)CCCN)C(=O)O1	0.37 µg/mL (≈ 0.217 µM)	5.2 mg/kg	0.05 mg/kg	30 µg/mL	0.27 µg/mL (≈ 0.158 µM)	0.83 nM	–	–	–	–	–	–	–	–
CCCCCCCCCCCCC[C@@H]1CC(=O)N[C@H]([C@@H](C)O)C(=O)N[C@H](C)C(=O)N[C@@H](Cc2ccc(O)cc2)C(=O)N[C@@H](C(C)C)C(=O)N2C[C@H](O)C[C@H]2C(=O)N[C@H]([C@@H](C)O)C(=O)N[C@@H]([C@@H](C)O)C(=O)N2CC[C@H](O)[C@H]2C(=O)N[C@@H]([C@H](O)CC(N)=O)C(=O)NCC(=O)N[C@H]([C@@H](C)O)C(=O)N[C@@H](CCCN(CCCN)C(=O)[C@@H](CCCN)N(CCN)CCN)C(=O)O1	0.39 µg/mL (≈ 0.218 µM)	5.8 mg/kg	0.12 mg/kg	100 µg/mL	0.26 µg/mL (≈ 0.145 µM)	0.25 nM	0.58 µg/mL (≈ 0.324 µM)	0.37 µg/mL (≈ 0.207 µM)	0.31 µg/mL (≈ 0.173 µM)	0.37 µg/mL (≈ 0.207 µM)	0.56 µg/mL (≈ 0.313 µM)	0.28 µg/mL (≈ 0.156 µM)	0.37 µg/mL (≈ 0.207 µM)	1.2 µg/mL (≈ 0.67 µM)
CCCCCCCCCCCCC[C@@H]1CC(=O)N[C@H]([C@@H](C)O)C(=O)N[C@H](C)C(=O)N[C@@H](Cc2ccc(O)cc2)C(=O)N[C@@H](C(C)C)C(=O)N2C[C@H](O)C[C@H]2C(=O)N[C@H]([C@@H](C)O)C(=O)N[C@@H]([C@@H](C)O)C(=O)N2CC[C@H](O)[C@H]2C(=O)N[C@@H]([C@H](O)CC(N)=O)C(=O)NCC(=O)N[C@H]([C@@H](C)O)C(=O)N[C@@H](CCCN)C(=O)O1 [FR-901469] ([d(aThr)][dA]YV[Hyp][d(aThr)]T[Pro(3S-OH)][Gln(3R-OH)]G[d(aThr)][Orn]; linker N-C via X1)	0.07 µg/mL (≈ 0.0456 µM)	> 15 mg/kg	0.22 mg/kg	10 µg/mL	0.54 µg/mL (≈ 0.352 µM)	8.5 nM	–	–	–	–	–	–	–	–
CCCCCCCCCCCCC[C@@H]1CC(=O)N[C@@H]([C@@H](C)O)C(=O)N[C@H](C)C(=O)N[C@@H](Cc2ccc(O)cc2)C(=O)N[C@@H](C(C)C)C(=O)N2C[C@H](O)C[C@H]2C(=O)N[C@@H]([C@@H](C)O)C(=O)N[C@@H]([C@@H](C)O)C(=O)N2CC[C@H](O)[C@H]2C(=O)N[C@@H]([C@H](O)CC(N)=O)C(=O)NCC(=O)N[C@@H]([C@@H](C)O)C(=O)N[C@@H](CCCN(CCCN)C(=O)[C@@H](N)CCCN)C(=O)O1	0.47 µg/mL (≈ 0.276 µM)	8.7 mg/kg	0.07 mg/kg	30 µg/mL	0.27 µg/mL (≈ 0.158 µM)	0.89 nM	–	–	–	–	–	–	–	–
CCCCCCCCCCCCC[C@@H]1CC(=O)N[C@@H]([C@@H](C)O)C(=O)N[C@H](C)C(=O)N[C@@H](Cc2ccc(O)cc2)C(=O)N[C@@H](C(C)C)C(=O)N2C[C@H](O)C[C@H]2C(=O)N[C@@H]([C@@H](C)O)C(=O)N[C@@H]([C@@H](C)O)C(=O)N2CC[C@H](O)[C@H]2C(=O)N[C@@H]([C@H](O)CC(N)=O)C(=O)NCC(=O)N[C@@H]([C@@H](C)O)C(=O)N[C@@H](CCCNC(=O)[C@H](CCCN)N(CCN)CCN)C(=O)O1	0.37 µg/mL (≈ 0.213 µM)	8.7 mg/kg	0.33 mg/kg	100 µg/mL	0.55 µg/mL (≈ 0.317 µM)	0.9 nM	–	–	–	–	–	–	–	–
CCCCCCCCCCCCC[C@@H]1CC(=O)N[C@@H]([C@@H](C)O)C(=O)N[C@H](C)C(=O)N[C@@H](Cc2ccc(O)cc2)C(=O)N[C@@H](C(C)C)C(=O)N2C[C@H](O)C[C@H]2C(=O)N[C@@H]([C@@H](C)O)C(=O)N[C@@H]([C@@H](C)O)C(=O)N2CC[C@H](O)[C@H]2C(=O)N[C@@H]([C@H](O)CC(N)=O)C(=O)NCC(=O)N[C@@H]([C@@H](C)O)C(=O)N[C@@H](CCCNC(=O)[C@@H](CCCN)N(CCN)CCN)C(=O)O1	0.31 µg/mL (≈ 0.179 µM)	11.6 mg/kg	0.13 mg/kg	30 µg/mL	0.31 µg/mL (≈ 0.179 µM)	0.63 nM	0.67 µg/mL (≈ 0.386 µM)	–	0.68 µg/mL (≈ 0.392 µM)	–	0.35 µg/mL (≈ 0.202 µM)	0.54 µg/mL (≈ 0.311 µM)	0.31 µg/mL (≈ 0.179 µM)	1.4 µg/mL (≈ 0.807 µM)
CCCCCCCCCCCCC[C@@H]1CC(=O)N[C@H]([C@@H](C)O)C(=O)N[C@H](C)C(=O)N[C@@H](Cc2ccc(O)cc2)C(=O)N[C@@H](C(C)C)C(=O)N2C[C@H](O)C[C@H]2C(=O)N[C@H]([C@@H](C)O)C(=O)N[C@@H]([C@@H](C)O)C(=O)N2CC[C@H](O)[C@H]2C(=O)N[C@@H]([C@H](O)CC(N)=O)C(=O)NCC(=O)N[C@H]([C@@H](C)O)C(=O)N[C@@H](CCCNC(=O)[C@H](N)CCCN)C(=O)O1	0.12 µg/mL (≈ 0.0728 µM)	–	0.1 mg/kg	30 µg/mL	0.33 µg/mL (≈ 0.2 µM)	3.6 nM	–	–	–	–	–	–	–	–
